Test results: US4605674A, “Substituted acetophenones and compositions containing them” (Hoffmann-La Roche Inc., priority 1979, dated 1986)
≈ marks a conversion by molar mass, not a printed value. Where two headings read alike, the source gives them in different places.

Tests used:
rhinovirus HGP = assay: Inhibition of viral cytopathogenic effect (c.p.e.) of rhinovirus HGP in HeLa cells; assay type: cell-based, human rhinoviruses; settings: Enterovirus, 48 h, read-out: IC50 against rhinovirus HGP (concentration inhibiting the viral c.p.e. by 50%)
Experimental: A suspension of HeLa cells (6×10^4) was mixed with rhinovirus HGP (3×10^3 plaque forming units, PFU) and was plated in a microtest plate containing the compounds to be tested serially diluted. The cells were then cultured with Eagle's minimum essential medium containing 2% calf serum, 1% tryptose phosphate broth, 100 μg/ml of streptomycin sulfate and 20 unit/ml of penicillin G. Viral c.p.e. (cytopathogenic effect) was observed by a microscope after 2 days culture at 33° C.
The antiviral activity of the tested compounds is expressed by the concentration inhibiting the viral c.p.e. by 50% when compared to the control culture (IC50).

in vivo = settings: mouse, DDY mice, single dose
Experimental: ^(1) DDY mice weighing 15-20 g were treated with a single dose of the
compound. Survivors were recorded on day 21.
^(2) Compounds were dissolved in dimethylsulfoxide.
^(3) Compounds were suspended with solution of 0.5% carboxymethyl

[1] = ip, i.p., dissolved in dimethylsulfoxide, day 21, read-out: LD50 i.p.
[2] = po, p.o., suspended in 0.5% carboxymethyl cellulose, day 21, read-out: LD50 p.o.

| IC50 (rhinovirus HGP; HeLa cells, 2 days culture at 33° C.) [µg/mL] | Compound | IC50 (rhinovirus HGP; HeLa) [µg/mL] | LD50 at 504 h (in vivo; [1]) [mg/kg] | LD50 at 504 h (in vivo; [2]) [mg/kg] |
| --- | --- | --- | --- | --- |
|  | CCOc1ccc(/C=C/C(=O)c2c(OCC)cc(OCC)cc2OC(=O)CC)cc1 [2',4,4'-triethoxy-6'-(propionyloxy)-chalcone] | 0.1 to 0.3 (≈ 0.242 to 0.727 µM) | > 1000 | > 5000 |
|  | COc1cc(O)c(C(=O)C=Cc2cccn2C)c(OC)c1 [2'-hydroxy-4',6'-dimethoxy-3-(1-methyl-pyrrol-2-yl)-acrylophenone] | 0.1 (≈ 0.348 µM) | > 500 | > 1000 |
|  | CCC(=O)Oc1cc(OC)cc(OC)c1C(=O)/C=C/c1ccc(SC)cc1 [2',4'-dimethoxy-4-(methylthio)-6'-(propionyloxy)-chalcone] | 0.03 to 0.1 (≈ 0.0776 to 0.259 µM) | > 1000 | > 5000 |
| 0.03 to 0.1 (≈ 0.1 to 0.334 µM) | COc1cc(O)c(C(=O)/C=C/c2ccc(N)cc2)c(OC)c1 [4-amino-2'-hydroxy-4',6'-dimethoxychalcone] |  |  |  |
|  | CCOc1cc(OC)cc(O)c1C(=O)/C=C/c1ccc(OC)cc1 [2'-ethoxy-6'-hydroxy-4,4'-dimethoxychalcone] | 0.01 (≈ 0.0305 µM) | > 500 | > 1000 |
|  | COc1cc(O)c(C(=O)C=Cc2ccc(C)o2)c(OC)c1 [2'-hydroxy-4',6'-dimethoxy-3-(5-methyl-2-furyl)-acrylophenone] | 0.03 (≈ 0.104 µM) | > 500 | > 2000 |
|  | CCOc1cc(OC)cc(OC(=O)CC)c1C(=O)/C=C/c1ccc(OC)cc1 [2'-ethoxy-4,4'-dimethoxy-6'-(propionyloxy)-chalcone] | 0.02 to 0.06 (≈ 0.052 to 0.156 µM) | > 1000 | > 5000 |
|  | CCC(=O)Oc1cc(OC)cc(OC)c1C(=O)/C=C/c1ccc(C)cc1 [2',4'-dimethoxy-4-methyl-6'-(propionyloxy)-chalcone] | 0.03 (≈ 0.0846 µM) | > 1000 | > 5000 |
|  | COc1cc(O)c(C(=O)/C=C/c2cccc(OC)c2OC)c(OC)c1 [2'-hydroxy-2,3,4',6'-tetramethoxychalcone] | 0.1 (≈ 0.29 µM) | > 500 | > 1000 |
|  | CCOc1ccc(/C=C/C(=O)c2c(O)cc(OC)cc2OCC)cc1 [2',4-diethoxy-6'-hydroxy-4'-methoxychalcone] | 0.1 (≈ 0.292 µM) | > 500 | > 5000 |
|  | CCOc1ccc(/C=C/C(=O)c2c(O)cc(OC)cc2OC)cc1 [4-ethoxy-2'-hydroxy-4',6'-dimethoxychalcone] | 0.02 to 0.05 (≈ 0.0609 to 0.152 µM) | > 1000 | > 5000 |
|  | CCOc1ccc(/C=C/C(=O)c2c(O)cc(OCC)cc2OC)cc1 [4,4'-diethoxy-2'-hydroxy-6'-methoxychalcone] | 0.006 to 0.02 (≈ 0.0175 to 0.0584 µM) | > 500 | > 1000 |
|  | CCOc1ccc(/C=C/C(=O)c2c(O)cc(OCC)cc2OCC)cc1 | 0.25 (≈ 0.701 µM) | > 1000 | > 3000 |
|  | COc1cc(O)c(C(=O)/C=C/c2ccc(N(C)C)cc2)c(OC)c1 | 0.02 to 0.06 (≈ 0.0611 to 0.183 µM) | > 1000 | > 5000 |
|  | CCOc1cc(O)c(C(=O)C=Cc2ccc(C)o2)c(OC)c1 [4'-ethoxy-2'-hydroxy-6'-methoxy-3-(5-methyl-2-furyl)-acrylophenone] | 0.03 (≈ 0.0992 µM) | > 500 | > 1000 |
|  | COc1cc(O)c(C(=O)/C=C/c2ccc(C)cc2)c(OC)c1 | 0.01 (≈ 0.0335 µM) | > 1000 | > 5000 |
|  | COc1cccc(/C=C/C(=O)c2c(O)cc(OC)cc2OC)c1 [2'-hydroxy-3,4',6'-trimethoxychalcone] | 0.1 (≈ 0.318 µM) | > 500 | > 1000 |
|  | COc1cc(O)c(C(=O)/C=C/c2ccc(OC)c(OC)c2)c(OC)c1 [2'-hydroxy-3,4,4',6'-tetramethoxychalcone] | 0.1 to 0.3 (≈ 0.29 to 0.871 µM) | > 500 | > 500 |
|  | CCCOc1ccc(/C=C/C(=O)c2c(O)cc(OC)cc2OC)cc1 [2'-hydroxy-4',6'-dimethoxy-4-propoxychalcone] | 0.1 (≈ 0.292 µM) | > 500 | > 5000 |
|  | COc1ccc(/C=C/C(=O)c2c(O)cc(OC)cc2OC(C)C)cc1 [2'-hydroxy-6'-isopropoxy-4,4'-dimethoxychalcone] | 0.1 to 0.2 (≈ 0.292 to 0.584 µM) | > 500 | > 2700 |
|  | CCCOc1cc(OC)cc(OC(=O)CC)c1C(=O)/C=C/c1ccc(OC)cc1 [4,4'-dimethoxy-2'-(propionyloxy)-6'-propoxychalcone] | 0.03 to 0.1 (≈ 0.0753 to 0.251 µM) | > 500 | > 1000 |
